Laboratory results: article PMC5443859, “EGFR-targeting peptide-coupled platinum(IV) complexes” (Journal of Biological Inorganic Chemistry, 2017)

Columns and labels:
H520 cells = assay: cells; conditions: Homo sapiens, NCI-H520, 72 h, read-out: IC50 ± SD
Procedure: (§1) The following human cell models were used in this study: the renal cell carcinomas RUMH, the squamous cell carcinoma H520, the epidermoid carcinoma A431, as well as the non-small-cell lung cancer (NSCLC) line HCC827 (sources and used medium are summarized in (Table 2). Unless otherwise indicated, the cells were cultivated in humidified incubators (37 °C, 21% O2, 5% CO2) in full culture medium, containing 10% fetal calf serum (PAA, Linz, Austria). Cell cultures were periodically checked for Mycoplasma contamination.
(§2) Subsequently, the dissolved drugs were added. […] Cytotoxicity was expressed as IC50 values calculated from full dose–response curves using GraphPad Prism software. […] Then, the cells were exposed to the indicated drugs (25 or 50 µM) for 14 days. After washing with phosphate-buffered saline (PBS), the cells were fixed with methanol (−20 °C, 20 min) and after another washing step stained with crystal violet (1 h). […] The sum of fluorescence intensities per well was measured with ImageJ and, after blank subtraction, normalized to the untreated cells.

RUMH cells = assay: cells; assay type: cell-based; conditions: Homo sapiens, EGFR/wt overexpression, 72 h treatment, MTT assay
Procedure: as §1, §2

A431 cells = assay: Long-term clonogenic assay, 14 days; assay type: cell-based, human; conditions: 25 and 50 µM, crystal violet, three experiments in duplicates, result in words
Procedure: Subsequently, the dissolved drugs were added.

For C#Cc1cccc(Nc2ncnc3cc(OCCOC)c(OCCOC)cc23)c1 [Erlotinib, erlotinib], the IC50 (H520 cells) was > 25 µM and the IC50 (RUMH cells) was 23 ± 2.6 µM.

In the case of O=C1[O][Pt]2([NH][C@@H]3CCCC[C@H]3[NH]2)[O]C1=O [oxaliplatin], the “long-term treatment effect, normalized to untreated cells” value (A431 cells) is reported as “too low to be seen in this graph”.
